{
  "source": "PubChem BioAssay (NCI)",
  "assay_in_all_cases": "NCI anticancer screen, dose series, 48 h",
  "key": {"[1]": {"tested_on": "KM12 colon"}, "[2]": {"tested_on": "HOP-92 NSCLC"}, "[3]": {"tested_on": "CAKI-1 renal"}, "[4]": {"tested_on": "OVCAR-4 ovarian"}, "[5]": {"tested_on": "SN12C renal"}, "[6]": {"tested_on": "UACC-62 melanoma"}, "[7]": {"tested_on": "SK-MEL-5 melanoma"}, "[8]": {"tested_on": "SF-539 CNS"}, "[9]": {"tested_on": "NCI/ADR-RES ovarian"}, "[10]": {"tested_on": "SK-MEL-28 melanoma"}, "[11]": {"tested_on": "HL-60(TB) leukemia"}, "[12]": {"tested_on": "NCI-H226 lung"}, "[13]": {"tested_on": "RPMI-8226 leukemia"}, "[14]": {"tested_on": "ACHN renal"}, "[15]": {"tested_on": "A549 NSCLC"}, "[16]": {"tested_on": "DU-145 prostate"}, "[17]": {"tested_on": "A498 renal"}, "[18]": {"tested_on": "MCF7 breast"}, "[19]": {"tested_on": "SK-OV-3 ovarian"}, "[20]": {"tested_on": "HCC-2998 colon"}, "[21]": {"tested_on": "HCT-15 colon"}, "[22]": {"tested_on": "SW-620 colon"}, "[23]": {"tested_on": "MALME-3M melanoma"}, "[24]": {"tested_on": "UACC-257 melanoma"}, "[25]": {"tested_on": "CCRF-CEM leukemia"}, "[26]": {"tested_on": "T-47D breast"}, "[27]": {"tested_on": "K-562 leukemia"}},
  "note": "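Five compound concentrations were applied to cells in 96-well plates for 48 hours; endpoints were derived by simple linear interpolation of the resulting dose-response curve. GI50: concentration for 50% inhibition of growth. TGI: concentration producing complete growth inhibition.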",
  "data": [
    {"smiles": "CS(=O)(=O)c1nccc(-c2c(-c3cccc(OCc4ccc(Cl)c(C(F)(F)F)c4)c3)nc3sccn23)n1", "values": [
      {"measurement": "GI50", "setting": "[1]", "result": 9.47, "unit": "µM"},
      {"measurement": "TGI", "setting": "[1]", "result": 17.8, "unit": "µM"},
      {"measurement": "GI50", "setting": "[2]", "result": 2.17, "unit": "µM"},
      {"measurement": "TGI", "setting": "[2]", "result": 9.74, "unit": "µM"},
      {"measurement": "GI50", "setting": "[3]", "result": 7.54, "unit": "µM"},
      {"measurement": "TGI", "setting": "[3]", "result": 14.7, "unit": "µM"},
      {"measurement": "GI50", "setting": "[4]", "result": 6.46, "unit": "µM"},
      {"measurement": "TGI", "setting": "[4]", "result": 13.8, "unit": "µM"},
      {"measurement": "GI50", "setting": "[5]", "result": 7.07, "unit": "µM"},
      {"measurement": "TGI", "setting": "[5]", "result": 23.1, "unit": "µM"},
      {"measurement": "GI50", "setting": "[6]", "result": 8.49, "unit": "µM"},
      {"measurement": "TGI", "setting": "[6]", "result": 16.9, "unit": "µM"},
      {"measurement": "GI50", "setting": "[7]", "result": 7.98, "unit": "µM"},
      {"measurement": "TGI", "setting": "[7]", "result": 14.9, "unit": "µM"},
      {"measurement": "GI50", "setting": "[8]", "result": 7.64, "unit": "µM"},
      {"measurement": "TGI", "setting": "[8]", "result": 15, "unit": "µM"},
      {"measurement": "GI50", "setting": "[9]", "result": 9, "unit": "µM"},
      {"measurement": "TGI", "setting": "[9]", "result": 19.1, "unit": "µM"},
      {"measurement": "GI50", "setting": "[10]", "result": 6.48, "unit": "µM"},
      {"measurement": "TGI", "setting": "[10]", "result": 13.1, "unit": "µM"},
      {"measurement": "GI50", "setting": "[11]", "result": 0.997, "unit": "µM"},
      {"measurement": "TGI", "setting": "[11]", "result": 2.52, "unit": "µM"},
      {"measurement": "GI50", "setting": "[12]", "result": 2.4, "unit": "µM"},
      {"measurement": "TGI", "setting": "[12]", "result": 11.9, "unit": "µM"},
      {"measurement": "GI50", "setting": "[13]", "result": 1.33, "unit": "µM"},
      {"measurement": "TGI", "setting": "[13]", "result": 3.64, "unit": "µM"},
      {"measurement": "GI50", "setting": "[14]", "result": 5.6, "unit": "µM"},
      {"measurement": "TGI", "setting": "[14]", "result": 11.6, "unit": "µM"},
      {"measurement": "GI50", "setting": "[15]", "result": 18.1, "unit": "µM"},
      {"measurement": "TGI", "setting": "[15]", "result": "> 50", "unit": "µM"},
      {"measurement": "GI50", "setting": "[16]", "result": 5.01, "unit": "µM"},
      {"measurement": "TGI", "setting": "[16]", "result": 10.8, "unit": "µM"},
      {"measurement": "GI50", "setting": "[17]", "result": 7.15, "unit": "µM"},
      {"measurement": "TGI", "setting": "[17]", "result": 13.8, "unit": "µM"},
      {"measurement": "GI50", "setting": "[18]", "result": 0.937, "unit": "µM"},
      {"measurement": "TGI", "setting": "[18]", "result": 1.98, "unit": "µM"},
      {"measurement": "GI50", "setting": "[19]", "result": 10.3, "unit": "µM"},
      {"measurement": "TGI", "setting": "[19]", "result": 33.7, "unit": "µM"},
      {"measurement": "GI50", "setting": "[20]", "result": 0.91, "unit": "µM"},
      {"measurement": "TGI", "setting": "[20]", "result": 1.68, "unit": "µM"},
      {"measurement": "GI50", "setting": "[21]", "result": 1.02, "unit": "µM"},
      {"measurement": "TGI", "setting": "[21]", "result": 2.42, "unit": "µM"},
      {"measurement": "GI50", "setting": "[22]", "result": 1.79, "unit": "µM"},
      {"measurement": "TGI", "setting": "[22]", "result": 6.84, "unit": "µM"},
      {"measurement": "GI50", "setting": "[23]", "result": 7.27, "unit": "µM"},
      {"measurement": "TGI", "setting": "[23]", "result": 14.6, "unit": "µM"},
      {"measurement": "GI50", "setting": "[24]", "result": 4.04, "unit": "µM"},
      {"measurement": "TGI", "setting": "[24]", "result": 10.8, "unit": "µM"},
      {"measurement": "GI50", "setting": "[25]", "result": 1.67, "unit": "µM"},
      {"measurement": "TGI", "setting": "[25]", "result": "> 50", "unit": "µM"},
      {"measurement": "GI50", "setting": "[26]", "result": 0.881, "unit": "µM"},
      {"measurement": "TGI", "setting": "[26]", "result": 1.82, "unit": "µM"},
      {"measurement": "GI50", "setting": "[27]", "result": 2.1, "unit": "µM"},
      {"measurement": "TGI", "setting": "[27]", "result": "> 50", "unit": "µM"}
    ]}
  ]
}
